Key:
female Aedes aegypti [1] = assay: Flight tunnel mosquito bioassay; format: in vivo; conditions: for fed (mean of triplicates) / probed (mean of triplicates): paired with control; for feeding attraction, in words: three different concentrations
Procedure: Mosquitoes: Aedes aegypti (Liverpool) were reared in an insectary using standard rearing procedures. Approximately 50 larvae were reared in plastic cups (13×7×7.5 cm) at 27±1° C., and were fed ground up fish pellets. Adults were contained in plastic cartons covered by nylon screening and were fed using cotton pads soaked in a 10% glucose solution. Prior to blood feeding, 20 adult females, approximately 6 to 8 days old, were aspirated out of the rearing cartons and placed in to a stock cage (20×20×20 cm). Flight Tunnel Mosquito Bioassay: The assay system consists of a six well reservoir placed at the upwind end of a flight tunnel ([…]). Temperature and humidity of the flight tunnel were maintained at rearing conditions as described above. Air was constantly pushed through the flight tunnel at a wind speed of 35 ft/min. The four center wells of the six well reservoir were utilized in these bioassays. One of the 3 cm×4 cm wells contained 6 ml of citrate-phosphate-dextrose-adenine (CPDA) solution and three wells contained 6 ml of CPDA solution supplemented with adenosine triphosphate (ATP) (Sigma Chemical Co., St. Louis, Mo.). A constant-temperature water circulator warmed the reservoir to 38° C. A collagen membrane (Devro, Sandy Run, S.C.) was placed over the wells and secured to the reservoir with a light coat of high-vacuum grease (Dow Corning Corp., Midland, Mich.). The membranes were replaced after each replicate observation and additional substrate was added as needed. The reservoir and CPDA solution was used for one replicate. Twenty mosquitoes were aspirated into a cylindrical release canister (20.5 mm×7 mm) containing a mesh screen on one end and a damper on the opposite end (Precision Plastics, Inc., Beltsville, Md.). Mosquitoes were allowed to acclimate in the canister for ten minutes and then were utilized in bioassays. The canister was placed downwind of the reservoir in the flight tunnel. Human breath was introduced in a plume into the tunnel for one minute prior to opening of the release canister. Mosquitoes were then released into the flight tunnel where the number of mosquitoes biting (proboscis inserted through the membrane) within each cell during the 10-min exposure was recorded. The solution in each well consisted of either CPDA in deionized water or one of the three experimental solutions, 10^−2M, 10^−3 M, or 10^−4 M ATP with CPDA, each marked with a randomly assigned food dye color (Betty Crocker). The position of each colored solution in the reservoir was also randomized. Mosquitoes were used once in a test and then aspirated for determination of engorgement. Several attractant candidates were compared one on one with each other, and with CO2 in the flight tunnel to evaluate efficacy.

female Aedes aegypti [2] = assay: K&D module high-throughput feeding assay; format: in vivo; conditions: for mean fed / mean probed: five females/cell
Procedure: Highthrouhput Feeding Assay: The K&D module was developed at USDA for evaluating feeding deterrence and toxicity of candidate topical repellents against hemophagus arthropod vectors (Klun, J. A., and M. Debboun, J. Med. Entomol., 37: 177-181 (2000)). In the present study the K&D module was used as a highthrouhput screening tool to evaluate response of Ae. aegypti to attractant\feeding stimuli.
In vitro bioassays were conducted as described by Klun et. al., 2000. […] The three treatments were randomly assigned to consecutive cells in 2,6-cell reservoirs connected in series to a single water-bath pump; thus, 4 replicates could be tested/run.
Tests were performed in an Air Science USA hood, with an air movement velocity of approx. 110-120 ft./min., temperature of 25-27° C., and RH of 15-25%. A six-celled reservoir was connected to and heated by a constant-temperature (38° C.) water circulator (Lauda E100, Wobser GMGH and Co., Konigshofell, Germany).
Prior to each test, the upper surface of each reservoir was coated with a thin layer of high-vacuum silicone grease (Dow Corning Corp., Midland, Mich.), and the cells then filled (approx. 6 ml. capacity) or topped-off with the following: (1) expired human red blood cells suspended in citrate-phosphate-dextrose-adenine (CPDA) solution, not more than 1 month past expiration date, and to which 110 mg ATP/35 ml. blood-CPDA had been added on the day of testing; or (2) CPDA+ATP×10^−3, usually made up or diluted to 10^−3 ATP on the day of testing.
The filled cells were then covered with an Edicol collagen membrane strip (Devro, Sandy Run, S.C.), and then with a just-treated (110 μl of 4.54 nmol/μl treatment or control solution) organdy cloth strip (G Street Fabrics, Rockville, Md.).
Mosquitoes used in the tests were either Aedes aegypti (Liverpool) or Aedes albopictus (Asian Tiger mosquitoes (ATMs)). Ae. aegypti and Ae. albopictus were originally obtained from colonies at the Walter Reed Army Institute of Research (WRAIR), Silver Spring, Md., and were maintained in colonies at the Beltsville Agricultural Research Center, USDA, ARS, Beltsville, Md. The larvae were reared (Gerber, E. J., et al., Manual for mosquito rearing and experimental techniques, Am. Mosq. Control Assoc. Bull. 5 (revised), AMCA, Inc., Lake Charles, La. (1994)) by feeding larvae ground tropical fish pellets (Hikari Cichlid Gold Fish Food, Kamihata Fish Ind. Ltd., Himeji, Japan, www.hikari.info). Adults were held at 12:12 h (light:dark) photoperiod at 26° C. and 50% RH, and fed with a cotton pad moistened with 10% aqueous sucrose solution. For both species, adult mosquitoes used in the tests were between 5-10 days old, and were kept on water pads only for 24 hrs. prior to testing. Ae. aegypti used in a given test session were all loaded into K&D modules at one time, with five adult females/cell, and tested within I-2 hrs.
K&D modules containing five adult females/cell were placed over a Teflon separator atop each reservoir; the sliding floors opened allowing access to the treated organdy cloth and membrane-covered cell, and the number of mosquitoes biting (proboscis inserted through the cloth) and/or observed to be engorged within each cell at the end of a 3-5 min. exposure period was recorded. Mosquitoes were used only once in a test, and then frozen and discarded.
Only tests in which three or more females fed in the control cell were analyzed, as lower feeding rates are indicative of substandard feeding readiness of that group of mosquitoes.
Feeding/probing responses observed on control, standard, and experimental compound-treated cells were compared using an R-code statistical analysis (Chauhan, K. R., et al., Journal of Medical Entomology, 42: 643-646 (2005)).

Ae. aegypti = assay: Attract and kill bait evaluation in bucket; format: in vivo, Aedes aegypti; conditions: sugar gel containing pyriproxyfen spiked with 5 ml of Okoumal
From the text: Attract and Kill Bait Evaluation: The assay system consists of a 1L plastic bucket covered with screened lid. A divider was placed to separate attract and kill bait from the control feeding. 50 Adult mosquitoes used in tests were between 5-10 days old, and were kept on water pads only for 24 hrs. prior to testing. Ae. aegypti used in each test session were all loaded into plastic bucket with attract and kill bait and control feeding formulation made with agarose gel containing sugar and color. In the preliminary semi-field trial, baits were charged with attractant candidates and deployed in to the either hut or tents. In one experiment 30 adult female Aedes aegypti mosquitoes were released, while in another trial at different location 20 adult female Aedes aegypti mosquitoes were released and observed for the attraction or attract-kill effect of the candidates. To incorporate invented field stable and long lasting attractants in the baits various putative devices were constructed and few of these attract and kill bait formulations were evaluated in the insectary and semi-field conditions. Data analysis: Attraction assay data were analyzed using the Wilcoxon two-sample test (PROC NPAR1WAY, SAS 1999) to examine the difference between the numbers of mosquitoes in control from treated baits. […]

[3] = system: host seeking Aedes albopictus females; assay: Field study with BG Sentinel traps in yards; format: in vivo; conditions: BG Sentinel trap with attractant lure, 24 hr periods, 10 yards; control 3-4
Procedure: In field studies, Okoumal (1) was evaluated as an attractant for host seeking Aedes albopictus females in the BG Sentinel traps placed in different areas (yards). In the before and after control intervention evaluation, one standard BG Sentinel mosquito trap was placed in each of the 10 yards and mosquitoes were trapped for 24 hr periods in ten replicates. The first five replicates were before adding Okoumal attractant as intervention. The second set of five replicates included additional lure to the BG Sentinel trap. The traps with attractant lures collected more mean mosquitoes per trap per day (6-7 vs 3-4 mosquitoes), compared to control.

[4] = system: Aedes albopictus, Ae. triseratus, and Ae. japonicus; assay: Field study with oviposition cups; format: in vivo; conditions: 0 to 1% in oviposition cups, forested area, retrieved after 10 days
Procedure: In the second field study different concentrations (0 to 1%) of Okoumal (1) were added to oviposition cups. Oviposition cups were placed in forested area that has known populations of Aedes albopictus, Ae. triseratus, and Ae. japonicus. Ovicups were retrieved after 10 days and accessed for the presence of mosquito eggs of different species.

mosquitoes = conditions: compared with matching control traps baited with CO2; cited from earlier work
[5] = CO2 (dry ice) + air paired with 0.1% Okoumal
[6] = CO2 (dry ice) + air paired with 0.1% cyclopentanone
[7] = CO2 (dry ice) + air paired with 1% Okoumal
[8] = CO2 (dry ice) + air paired with 1% cyclopentanone
[9] = CO2 (dry ice) + air paired with air
[10] = 0.1% concentration, paired with CO2 (dry ice) + air
[11] = 1% concentration, paired with CO2 (dry ice) + air

Compound | fed (mean of triplicates) (female Aedes aegypti [1]; 0.10% concentration) | probed (mean of triplicates) (female Aedes aegypti [1]; 0.10% concentration) | fed (mean of triplicates) (female Aedes aegypti [1]; 1.00% concentration) | probed (mean of triplicates) (female Aedes aegypti [1]; 1.00% concentration) | fed (mean of triplicates) (female Aedes aegypti [1]; 5% concentration) | probed (mean of triplicates) (female Aedes aegypti [1]; 5% concentration) | feeding attraction, in words (female Aedes aegypti [1]) | other results
O=C=O [CO2 (dry ice), Carbon dioxide, reference compound] |  |  |  |  |  |  |  | mean fed (female Aedes aegypti [1]; [5]): 3; mean probed (female Aedes aegypti [1]; [5]): 3.7; mean fed (female Aedes aegypti [1]; [6]): 2.8; mean probed (female Aedes aegypti [1]; [6]): 3.1; mean fed (female Aedes aegypti [1]; [7]): 2; mean probed (female Aedes aegypti [1]; [7]): 2.2; mean fed (female Aedes aegypti [1]; [8]): 2.1; mean probed (female Aedes aegypti [1]; [8]): 2.3; mean fed (female Aedes aegypti [1]; [9]): 1.8; mean probed (female Aedes aegypti [1]; [9]): 2.1
C1CCC2(C1)OCCO2 [Compound I-90] | 2.7 | 5.7 | 4 | 8.3 | 3 | 8.7 | consistent feeding attraction | 
CC1COC2(CCCC2)O1 (centres unmarked) [Compound I-95] |  |  | 3.3 | 12 | 3.3 | 8.3 |  | 
CC1COC2(CCCCC2)O1 (centres unmarked) [Compound I-96] | 3 | 6.3 | 2.7 | 8.3 | 2.7 | 12.7 | consistent feeding attraction | 
COC1(OC)CCCC1 [Compound I-152] |  |  | 0.7 | 1.3 | 1 | 1.7 |  | 
COC1(OC)CCCCC1 [Compound I-182] |  |  | 2.7 | 5.7 | 2 | 12.3 |  | 
CCN(CC)C(=O)c1cccc(C)c1 [Deet, reference compound] |  |  |  |  |  |  |  | mean fed (female Aedes aegypti [2]; Deet standard (4.54 nmol/μl)): 0.1; mean probed (female Aedes aegypti [2]; Deet standard (4.54 nmol/μl)): 0.1
CC1COC(C)(c2ccc3c(c2)C(C)(C)CCC3(C)C)O1 (centres unmarked) [Okoumal] | 3.3 | 18.3 | 2.8 | 9.7 | 2.3 | 13.3 | consistent feeding attraction | mean fed (female Aedes aegypti [2]; 0.1% concentration): 3.6; mean probed (female Aedes aegypti [2]; 0.1% concentration): 3.3; mean fed (female Aedes aegypti [2]; 0.25% concentration): 2.8; mean probed (female Aedes aegypti [2]; 0.25% concentration): 3; mean fed (female Aedes aegypti [2]; 1% concentration): 3.5; mean probed (female Aedes aegypti [2]; 1% concentration): 3.9; mean fed (female Aedes aegypti [2]; 5% concentration): 2.8; mean probed (female Aedes aegypti [2]; 5% concentration): 2.9; feeding compared with control, in words (female Aedes aegypti [2]; four different concentrations, twenty replicates): consistent feeding on par with either control or better; mean fed (female Aedes aegypti [1]; [10]): 3.9; mean probed (female Aedes aegypti [1]; [10]): 3.6; mean fed (female Aedes aegypti [1]; [11]): 3.8; mean probed (female Aedes aegypti [1]; [11]): 4.1; feeding (host seeking) preference, in words (female Aedes aegypti [1]; compared with CO2 and cyclopentanone, host seeking female mosquitoes): consistent feeding (host seeking) preference; mosquitoes in the bucket preferring feeding on treated gel over control sugar gel (Ae. aegypti): 90%; mean mosquitoes per trap per day [3]: 6-7 mosquitoes; effect on numbers of oviposited eggs, in words [4]: significant effect of Okoumal concentration on numbers of oviposited eggs
O=C1CCCCC1 [cyclohexanone, reference compound] |  |  | 0.3 | 0.7 | 1.7 | 3.7 |  | 
O=C1CCCC1 [cyclopentanone, reference compound] | 3 | 7 | 2 | 5.7 | 1 | 1.7 |  | mean fed (female Aedes aegypti [1]; [10]): 2.6; mean probed (female Aedes aegypti [1]; [10]): 2.2; mean fed (female Aedes aegypti [1]; [11]): 2.1; mean probed (female Aedes aegypti [1]; [11]): 2.8; attractiveness of baited traps, in words (mosquitoes): equivalent to that of matching control traps baited with CO2

From patent publication US10952434B2, “Compositions and methods for attracting insects” (The United States of America, as Represented by the …, priority 2016, dated 2021)
